Test results reported in patent US4659734A, “Olinecarboxylic acid derivatives” (Nippon Shinyaku Co., Ltd., priority 1983, dated 1987).
Converted amounts (≈) assume the structure as drawn.

Columns and labels:
[1] = tested on: Streptococcus pyogenes S-23; assay: Minimum growth inhibiting concentration, Japan Chemotherapeutic Society method; assay type: cell-based; details: S23; Streptococcus pyogenes S-23, Gram +; 5% horse blood added agar medium; read-out: Minimum Growth Inhibiting Concn
Experimental: (§1) The Antibacterial activity of the compounds of Examples 14, 13, 22b, 21 and 15 was determined in accordance with the method of Japan Chemotherapeutic Society (cf. Nippon Kagaku Ryoho Gakkai Shi, volume 29, number 1, pages 76 to 79, 1981) and the results are reported in Table 1, which follows. | *5% Horse blood added agar medium for sensitivity measurement being used.

[2] = tested on: Streptococcus pneumoniae Type I; assay: as above; assay type: cell-based; details: Gram +, 5% horse blood added agar medium, read-out: Minimum Growth Inhibiting Concn
Experimental: as §1

[3] = tested on: Bacillus subtilis ATCC 6633; assay: as above; assay type: cell-based; details: ATCC6633; Bacillus subtilis ATCC 6633, Gram +; 5% horse blood added agar medium; read-out: Minimum Growth Inhibiting Concn
Experimental: as §1

Escherichia coli KC-14 [4] = assay: Mouse intraperitoneal infection, survival after one week; assay type: in vivo, ddY strain mice; details: KC14, po; Escherichia coli KC-14, 5 × 10^4 per mouse; one dose per os 2 h after infection
Experimental: (§2) ddY--Strain mice (male; body weight 20±1 grams) of SPF were innoculated with the bacteria set forth in Table 2 by administration of a supension of the bacterial in 4% mucin solution into the abdominal cavity. A compound of the invention was given one time per os two hours after the infection, and, from the survival rate after one week. 50% effective doses (ED50) were calculated by the Behrens-Karber method.

[5] = tested on: Pseudomonas aeruginosa E-2; assay: as above; assay type: in vivo, ddY strain mice; details: E2, po; Pseudomonas aeruginosa E-2, 2 × 10^5 per mouse; one dose per os 2 h after infection; Behrens-Karber
Experimental: as §2

Acute toxicity = details: mouse, in vivo; oral, groups of ten ddY male mice; read-out: 50% Lethal Doses (LD50)
Experimental: Groups of ten ddY strain male mice (body weights: 20±1 grams) of the test compound were orally administered to determine the LD50. There was […] in which many mice died when the dose was 2000 mg/kg or less.

[6] = tested on: Serracia marcescens IFO 3736; assay: Minimum growth inhibiting concentration, Japan Chemotherapeutic Society method; assay type: cell-based; details: Serracia marcescens IFO 3736, Gram -; read-out: Minimum Growth Inhibiting Concn
Experimental: (§3) The Antibacterial activity of the compounds of Examples 14, 13, 22b, 21 and 15 was determined in accordance with the method of Japan Chemotherapeutic Society (cf. Nippon Kagaku Ryoho Gakkai Shi, volume 29, number 1, pages 76 to 79, 1981) and the results are reported in Table 1, which follows.

[7] = tested on: Listeria monocytogenes RIMD 1205020; assay: as above; assay type: cell-based; details: RIMD1205020; Listeria monocytogenes RIMD 1205020, Gram +; read-out: Minimum Growth Inhibiting Concn
Experimental: as §3

[8] = tested on: Pseudomonas aeruginosa No. 12; assay: as above; assay type: cell-based; details: Pseudomonas aeruginosa No. 12, Gram -; read-out: Minimum Growth Inhibiting Concn
Experimental: as §3

[9] = tested on: Pseudomonas maltophilia ATCC 13637; assay: as above; assay type: cell-based; details: Stenotrophomonas maltophilia, ATCC13637; Pseudomonas maltophilia ATCC 13637, Gram -; read-out: Minimum Growth Inhibiting Concn
Experimental: as §3

[10] = tested on: Acinetobacter calcoacelicus 54; assay: as above; assay type: cell-based; details: Acinetobacter calcoacelicus 54, Gram -; read-out: Minimum Growth Inhibiting Concn
Experimental: as §3

[11] = tested on: Staphylococcus aureus Smith; assay: as above; assay type: cell-based; details: Gram +, read-out: Minimum Growth Inhibiting Concn
Experimental: as §3

Proteus mirabilis 181 = assay: as above; assay type: cell-based; details: Proteus mirabilis 181, Gram -; read-out: Minimum Growth Inhibiting Concn
Experimental: as §3

[12] = tested on: Pseudomonas cepacia ATCC 25416; assay: as above; assay type: cell-based; details: Burkholderia cepacia, ATCC25416; Pseudomonas cepacia ATCC 25416, Gram -; read-out: Minimum Growth Inhibiting Concn
Experimental: as §3

[13] = tested on: Micrococcus luteus ATCC 9341; assay: as above; assay type: cell-based; details: ATCC9341; Micrococcus luteus ATCC 9341, Gram +; read-out: Minimum Growth Inhibiting Concn
Experimental: as §3

Escherichia coli KC-14 [14] = assay: as above; assay type: cell-based; details: KC14; Escherichia coli KC-14, Gram -; read-out: Minimum Growth Inhibiting Concn
Experimental: as §3

[15] = tested on: Staphylococcus aureus 209-PJC; assay: as above; assay type: cell-based; details: Gram +, read-out: Minimum Growth Inhibiting Concn
Experimental: as §3

[16] = tested on: Escherichia coli NIHJ JC-2; assay: as above; assay type: cell-based; details: NIHJJC2; Escherichia coli NIHJ JC-2, Gram -; read-out: Minimum Growth Inhibiting Concn
Experimental: as §3

[17] = tested on: Pseudomonas aeruginosa E-2; assay: as above; assay type: cell-based; details: E2; Pseudomonas aeruginosa E-2, Gram -; read-out: Minimum Growth Inhibiting Concn
Experimental: as §3

Proteus vulgaris DX-19 = assay: as above; assay type: cell-based; details: DX19; Proteus vulgaris DX-19, Gram -; read-out: Minimum Growth Inhibiting Concn
Experimental: as §3

[18] = tested on: Alcaligenes faecalis ATCC 8750; assay: as above; assay type: cell-based; details: ATCC8750; Alcaligenes faecalis ATCC 8750, Gram -; read-out: Minimum Growth Inhibiting Concn
Experimental: as §3

[19] = tested on: Klebsiella pneumoniae K-1966; assay: as above; assay type: cell-based; details: K1966; Klebsiella pneumoniae K-1966, Gram -; read-out: Minimum Growth Inhibiting Concn
Experimental: as §3

[20] = tested on: Acimetobacter calcoaceticus; assay: Mouse intraperitoneal infection, survival after one week; assay type: in vivo, ddY strain mice; details: po, 1 × 10^7 per mouse, one dose per os 2 h after infection
Experimental: as §2

[21] = tested on: Klebsiella pneumoniae K-1966; assay: as above; assay type: in vivo, ddY strain mice; details: K1966, po; Klebsiella pneumoniae K-1966, 3 × 10^3 per mouse; one dose per os 2 h after infection
Experimental: as §2

SMILES	MIC [1] [µg/mL]	MIC [2] [µg/mL]	MIC [3] [µg/mL]	LD50 (Acute toxicity) [mg/kg]	MIC [6] [µg/mL]	MIC [7] [µg/mL]	MIC [8] [µg/mL]	MIC [9] [µg/mL]	MIC [10] [µg/mL]	MIC [11] [µg/mL]	MIC (Proteus mirabilis 181) [µg/mL]	MIC [12] [µg/mL]	MIC [13] [µg/mL]	MIC (Escherichia coli KC-14 [14]) [µg/mL]	MIC [15] [µg/mL]	MIC [16] [µg/mL]	MIC [17] [µg/mL]	MIC (Proteus vulgaris DX-19) [µg/mL]	MIC [18] [µg/mL]	MIC [19] [µg/mL]	also measured
CN1CCN(c2cc3c(cc2F)c(=O)c(C(=O)O)c2sccn23)CC1 [Example 14, 7-fluoro-8-(4-methyl-1-piperazinyl)-5-oxo-5H-thiazolo(3,2-a)-quinoline-4-carboxylic acid]	0.2 (≈ 0.553 µM)	0.2 (≈ 0.553 µM)	0.0063 (≈ 0.0174 µM)	> 2000	0.39 (≈ 1.08 µM)	1.56 (≈ 4.32 µM)	0.39 (≈ 1.08 µM)	0.025 (≈ 0.0692 µM)	0.39 (≈ 1.08 µM)	0.05 (≈ 0.138 µM)	0.013 (≈ 0.036 µM)	0.78 (≈ 2.16 µM)	0.78 (≈ 2.16 µM)	0.013 (≈ 0.036 µM)	0.1 (≈ 0.277 µM)	0.1 (≈ 0.277 µM)	0.39 (≈ 1.08 µM)	0.0063 (≈ 0.0174 µM)	0.78 (≈ 2.16 µM)	0.1 (≈ 0.277 µM)	ED50 (Escherichia coli KC-14 [4]): 1.5 mg/kg; ED50 [5]: 16 mg/kg
C=CCN1CCN(c2cc3c(cc2F)c(=O)c(C(=O)O)c2sccn23)CC1 [Example 15, 8-(4-Allyl-1-piperazinyl)-7-fluoro-5-oxo-5H-thiazolo(3,2-a)-quinoline-4-carboxylic acid]	0.1 (≈ 0.258 µM)	0.39 (≈ 1.01 µM)	0.0063 (≈ 0.0163 µM)	> 2000	0.39 (≈ 1.01 µM)	0.39 (≈ 1.01 µM)	0.78 (≈ 2.01 µM)	0.0063 (≈ 0.0163 µM)	0.39 (≈ 1.01 µM)	0.013 (≈ 0.0336 µM)	0.2 (≈ 0.516 µM)	1.56 (≈ 4.03 µM)	1.56 (≈ 4.03 µM)	0.05 (≈ 0.129 µM)	0.025 (≈ 0.0645 µM)	0.2 (≈ 0.516 µM)	1.56 (≈ 4.03 µM)	0.05 (≈ 0.129 µM)	0.78 (≈ 2.01 µM)	0.05 (≈ 0.129 µM)	ED50 [20]: > 35 mg/kg; ED50 (Escherichia coli KC-14 [4]): 2 mg/kg; ED50 [5]: 10.7 mg/kg; ED50 [21]: 3.3 mg/kg
Cc1csc2c(C(=O)O)c(=O)c3cc(F)c(N4CCNCC4)cc3n12 [Example 21, 7-fluoro-1-methyl-5-oxo-8-(1-piperazinyl)-5H-thiazolo(3,2-a)-quinoline-4-carboxylic acid]	0.1 (≈ 0.277 µM)	0.2 (≈ 0.553 µM)	0.0063 (≈ 0.0174 µM)	> 2000	0.2 (≈ 0.553 µM)	0.2 (≈ 0.553 µM)	0.39 (≈ 1.08 µM)	0.013 (≈ 0.036 µM)	0.2 (≈ 0.553 µM)	0.013 (≈ 0.036 µM)	0.05 (≈ 0.138 µM)	0.2 (≈ 0.553 µM)	0.39 (≈ 1.08 µM)	0.0063 (≈ 0.0174 µM)	0.025 (≈ 0.0692 µM)	0.025 (≈ 0.0692 µM)	0.39 (≈ 1.08 µM)	0.0016 (≈ 0.00443 µM)	0.78 (≈ 2.16 µM)	0.013 (≈ 0.036 µM)	
